Measurements reported in the NIST ThermoML archive (doi:10.1016/j.tca.2013.10.024).
Values joined by “and” are separate entries in the source; they are usually repeats but may differ in a detail not shown here. Equal values may be shown once.

Conditions: Crystal, Calculated from knudsen effusion weight loss

O=S(=O)([O-])[O-].[K+].[K+] [potassium sulfate]
Conditions	vapor or sublimation pressure
1193 K	2.255e-05 kPa
1201 K	4.069e-05 kPa
1202 K	3.268e-05 kPa
1207 K	5.831e-05 kPa
1212 K	4.467e-05 kPa
1214 K	4.592e-05 kPa and 5.841e-05 kPa
1218 K	4.274e-05 kPa
1221 K	7.584e-05 kPa
1223 K	9.497e-05 kPa
1224 K	6.12e-05 kPa
1225 K	5.984e-05 kPa
1226 K	7.236e-05 kPa
1227 K	0.0001197 kPa
1228 K	0.0001335 kPa and 9.75e-05 kPa
1233 K	6.173e-05 kPa
1235 K	6.966e-05 kPa and 0.0001125 kPa
1238 K	0.000154 kPa and 7.448e-05 kPa
1239 K	0.000181 kPa and 0.0001288 kPa
1240 K	9.576e-05 kPa
1241 K	0.0001668 kPa
1243 K	0.0002943 kPa and 0.0001001 kPa
1244 K	0.000186 kPa [middle of 4 runs]
1245 K	0.0001671 kPa
1246 K	0.0001915 kPa and 0.0001729 kPa
1247 K	0.0002093 kPa
1248 K	0.0002174 kPa and 0.0001453 kPa
1253 K	0.0001091 kPa
1254 K	0.0001949 kPa
1255 K	0.0002829 kPa and 0.0001188 kPa
1258 K	0.000281 kPa and 0.0003264 kPa
1259 K	0.0001516 kPa and 0.0002187 kPa and 0.0003679 kPa
1260 K	0.0001623 kPa and 0.0004471 kPa
1263 K	0.0002656 kPa
1264 K	0.0005652 kPa and 0.0002789 kPa
1265 K	0.0003443 kPa and 0.0002937 kPa
1267 K	0.0005201 kPa and 0.0003602 kPa
1268 K	0.0003503 kPa [middle of 4 runs]
1269 K	0.0001536 kPa
1271 K	0.0003904 kPa
1272 K	0.0005138 kPa and 0.0005765 kPa and 0.0003016 kPa
1273 K	0.0001617 kPa and 0.0001919 kPa
1275 K	0.0006554 kPa
1276 K	0.0003422 kPa
1277 K	0.000463 kPa
1280 K	0.0004126 kPa
1281 K	0.0005285 kPa and 0.0002784 kPa
1282 K	0.000452 kPa
1283 K	0.0007481 kPa [middle of 5 runs]
1286 K	0.0004333 kPa
1288 K	0.0005671 kPa and 0.0005922 kPa and 0.0005203 kPa
1290 K	0.0009328 kPa and 0.0004622 kPa
1292 K	0.000853 kPa and 0.0003739 kPa and 0.0005323 kPa
1296 K	0.0006593 kPa and 0.0005992 kPa
1297 K	0.001092 kPa
1300 K	0.0007532 kPa [middle of 4 runs]
1301 K	0.0007786 kPa
1302 K	0.0004586 kPa and 0.0006547 kPa
1303 K	0.0003659 kPa
1304 K	0.0006238 kPa
1305 K	0.0008515 kPa [middle of 4 runs]
1306 K	0.001457 kPa
1308 K	0.0009057 kPa
1309 K	0.0005351 kPa and 0.000795 kPa
1311 K	0.001559 kPa
1313 K	0.001473 kPa
1314 K	0.001 kPa and 0.0008818 kPa
1315 K	0.0006036 kPa
1317 K	0.000929 kPa
1318 K	0.000916 kPa and 0.0006586 kPa
1320 K	0.001024 kPa
1325 K	0.001188 kPa and 0.001093 kPa
1326 K	0.0008296 kPa
1330 K	0.0008553 kPa and 0.001278 kPa
1332 K	0.001415 kPa
1334 K	0.00134 kPa
1335 K	0.001459 kPa
1336 K	0.001412 kPa
1341 K	0.001475 kPa
1343 K	0.001564 kPa
1347 K	0.001721 kPa
1349 K	0.001744 kPa
1352 K	0.001919 kPa
1355 K	0.001941 kPa
1359 K	0.002022 kPa
